Read-outs that look alike come from different tables or passages of the source.
Legend:
[1] = plasma pharmacokinetics in patients (HPLC–MS/MS, non-compartmental analysis); assay type: in vivo, human; details: for AUC(0-t): read-out: AUC0-12h PD-0325901, mean (CV%); for Cmax: read-out: Cmax PD-0325901, mean (CV%)
Protocol: For pharmacokinetic analyses, serial blood samples were obtained from all patients prior to treatment administration on day 1, and 1, 2, 3, 4, 6, 8, 12, 24, 72 and 144 h after the first dose. On day 1 of cycle 2, blood samples were drawn before and 1, 2, 3, 4, 6, 8, 12 and 24 h after administration. Plasma samples were assayed using a validated high-performance liquid chromatography– tandem mass spectrometry method (HPLC–MS/MS). Briefly, dacomitinib and PD-0325901 were extracted from plasma by protein precipitation with a mixture of acetonitrile/methanol (1:1 v/v). Compounds were chromatographically separated using a Waters Xbridge BEH Phenyl column (50 ×2.1-mm ID, 5-μm particle size), and detection was performed using an API4000 tandem mass spectrometer equipped with a turbo ion spray interface, operating in the positive ion mode. Transitions from m/z 480 to 329 and m/z 489 to 255 were monitored for the detection of dacomitinib and PD-0325901, respectively. Stable isotope-labelled internal standards were used for the quantification. The lower and upper limits of quantification were, respectively, 0.5 and 50 ng/ml for dacomitinib, and 5 and 500 ng/ml for PD-0325901. Pharmacokinetic parameters were calculated in R using an in-house-developed validated script for non-compartmental pharmacokinetic analyses (version 3.6.0).[9]

[2] = tested on: patients with KRASm CRC, NSCLC or pancreatic cancer; assay type: in vivo; details: dacomitinib QD continuous, PD-0325901 BID 21 days on/7 days off
Text: . The starting doses were based on previous data from single-agent Phase 1 studies with both compounds, taking into account the potential for synergistic toxicity. […]. Dose-escalation decisions were based on safety evaluation of all evaluable patients, performed after completion of the first treatment cycle. Patients were considered evaluable for the dose-determining part of this study if at least one cycle of study treatment was completed, with the minimum safety evaluation conducted, and at least one administration of both drugs received, or if dose-limiting toxicity (DLT) had occurred during the first cycle. If one out of three patients experienced a DLT, the number of patients treated at that dose level was expanded to a maximum of six. […] Patients were continuing study treatment until disease progression, unacceptable toxicity or investigator/patient decision to discontinue.
Safety was monitored throughout the treatment by physical examination, laboratory assessments, electrocardiography, ophthalmic evaluation and collection of adverse events. Adverse events were recorded according to the Common Terminology Criteria for Adverse Events version 4.0. All adverse events that were possible, probable or definite related to study drug were considered as study/treatment related. […]

[3] = tested on: patients with advanced cancers; design: method as in PMID 20215549; details: BID, continuous schedule; cited from earlier work
[4] = Dose-level 2: dacomitinib 15 mg QD + PD-0325901 3 mg BID, Cycle 1 Day 1, n = 6
[5] = human, plasma, oral, 6 mg, All 6 mg doses, Cycle 1 Day 1, n = 14
[6] = human, plasma, oral, 6 mg, All 6 mg doses, Cycle 2 Day 1 or last day of concomitant use, n = 6
[7] = human, plasma, oral, Dose-level 1: dacomitinib 30 mg QD + PD-0325901 2 mg BID, Cycle 1 Day 1, n = 6
[8] = human, plasma, oral, Dose-level 1: dacomitinib 30 mg QD + PD-0325901 2 mg BID, Cycle 2 Day 1, n = 6
[9] = human, plasma, oral, Dose-level 2: dacomitinib 15 mg QD + PD-0325901 3 mg BID, Cycle 2 Day 1, n = 5
[10] = human, plasma, oral, Dose-level 3: dacomitinib 15 mg QD + PD-0325901 4 mg BID, Cycle 1 Day 1, n = 2
[11] = human, plasma, oral, Dose-level 3: dacomitinib 15 mg QD + PD-0325901 4 mg BID, Cycle 2 Day 1, n = 2
[12] = human, plasma, oral, Dose-level 4: dacomitinib 15 mg QD + PD-0325901 5 mg BID, Cycle 1 Day 1, n = 3
[13] = human, plasma, oral, Dose-level 4: dacomitinib 15 mg QD + PD-0325901 5 mg BID, Cycle 2 Day 1, n = 4
[14] = human, plasma, oral, Dose-level 5: dacomitinib 15 mg QD + PD-0325901 6 mg BID, Cycle 1 Day 1, n = 8
[15] = human, plasma, oral, Dose-level 5: dacomitinib 15 mg QD + PD-0325901 6 mg BID, Cycle 2 Day 1, n = 5
[16] = human, plasma, oral, Dose-level 6: dacomitinib 30 mg (4/3) QD + PD-0325901 6 mg BID, Cycle 1 Day 1, n = 3
[17] = human, plasma, oral, Dose-level 6: dacomitinib 30 mg (4/3) QD + PD-0325901 6 mg BID, last day of concomitant use of both drugs, n = 1
[18] = human, plasma, oral, Dose-level 7: dacomitinib 30 mg (5/2) QD + PD-0325901 6 mg (5/2) BID, Cycle 1 Day 1, n = 3
[19] = human, plasma, oral, Dose-level 7: dacomitinib 30 mg (5/2) QD + PD-0325901 6 mg (5/2) BID, last day of concomitant use of both drugs, n = 2
[20] = human, plasma, oral, Dose-level 8: dacomitinib 30 mg (5/2) QD + PD-0325901 5 mg (5/2) BID, Cycle 1 Day 1, n = 4
[21] = human, plasma, oral, Dose-level 8: dacomitinib 30 mg (5/2) QD + PD-0325901 5 mg (5/2) BID, last day of concomitant use of both drugs, n=2
[22] = human, plasma, oral, Dose-level -1: dacomitinib 15 mg QD + PD-0325901 2 mg BID, Cycle 1 Day 1, n = 4
[23] = human, plasma, oral, Dose-level -1: dacomitinib 15 mg QD + PD-0325901 2 mg BID, Cycle 2 Day 1, n = 3
[24] = patients, combination treatment

O=C(NOC[C@H](O)CO)c1ccc(F)c(F)c1Nc1ccc(I)cc1F [PD-0325901]
tmax PD-0325901, mean ([1]; All 6 mg doses, Cycle 1 Day 1, n = 14): 1.5 h | tmax PD-0325901, mean ([1]; All 6 mg doses, Cycle 2 Day 1 or last day of concomitant use, n = 6): 2.2 h | tmax PD-0325901, mean ([1]; Dose-level 1: dacomitinib 30 mg QD + PD-0325901 2 mg BID, Cycle 1 Day 1, n = 6): 1.2 h | tmax PD-0325901, mean ([1]; Dose-level 1: dacomitinib 30 mg QD + PD-0325901 2 mg BID, Cycle 2 Day 1, n = 6): 1.5 h | AUC0-12h PD-0325901, mean (CV%) [1, 4]: 273 (15) ng*h/ml | tmax PD-0325901, mean [1, 4]: 1.2 h | tmax PD-0325901, mean ([1]; Dose-level 2: dacomitinib 15 mg QD + PD-0325901 3 mg BID, Cycle 2 Day 1, n = 5): 2.2 h | tmax PD-0325901, mean ([1]; Dose-level 4: dacomitinib 15 mg QD + PD-0325901 5 mg BID, Cycle 1 Day 1, n = 3): 1.4 h | tmax PD-0325901, mean ([1]; Dose-level 5: dacomitinib 15 mg QD + PD-0325901 6 mg BID, Cycle 1 Day 1, n = 8): 1.4 h | tmax PD-0325901, mean ([1]; Dose-level 5: dacomitinib 15 mg QD + PD-0325901 6 mg BID, Cycle 2 Day 1, n = 5): 1.2 h | tmax PD-0325901, mean ([1]; Dose-level 6: dacomitinib 30 mg (4/3) QD + PD-0325901 6 mg BID, Cycle 1 Day 1, n = 3): 1.3 h | tmax PD-0325901, mean ([1]; Dose-level 7: dacomitinib 30 mg (5/2) QD + PD-0325901 6 mg (5/2) BID, Cycle 1 Day 1, n = 3): 1.3 h | tmax PD-0325901, mean ([1]; Dose-level 8: dacomitinib 30 mg (5/2) QD + PD-0325901 5 mg (5/2) BID, Cycle 1 Day 1, n = 4): 1.5 h | tmax PD-0325901, mean ([1]; Dose-level -1: dacomitinib 15 mg QD + PD-0325901 2 mg BID, Cycle 1 Day 1, n = 4): 1.3 h | tmax PD-0325901, mean ([1]; Dose-level -1: dacomitinib 15 mg QD + PD-0325901 2 mg BID, Cycle 2 Day 1, n = 3): 1.1 h | plasma concentration versus target level (16.5 ng/ml) ([1]; PD-0325901 doses of 5 and 6 mg, during the entire dose interval): exceeded the target level | increase of exposure with dose ([1]; across dose levels): approximately dose-proportionally | AUC(0-t) [1, 5]: 706 ng·h/mL | Cmax [1, 5]: 227 ng/mL | AUC(0-t) [1, 6]: 954 ng·h/mL | Cmax [1, 6]: 217 ng/mL | AUC(0-t) [1, 7]: 188 ng·h/mL | Cmax [1, 7]: 68.7 ng/mL | AUC(0-t) [1, 8]: 210 ng·h/mL | Cmax [1, 8]: 58.3 ng/mL | Cmax ([1]; human, plasma, oral, Dose-level 2: dacomitinib 15 mg QD + PD-0325901 3 mg BID, Cycle 1 Day 1, n = 6): 85 ng/mL | AUC(0-t) [1, 9]: 279 ng·h/mL | Cmax [1, 9]: 73.8 ng/mL | AUC(0-t) [1, 10]: 452 ng·h/mL | Cmax [1, 10]: 106 ng/mL | AUC(0-t) [1, 11]: 376 ng·h/mL | Cmax [1, 11]: 125 ng/mL | AUC(0-t) [1, 12]: 552 ng·h/mL | Cmax [1, 12]: 179 ng/mL | AUC(0-t) [1, 13]: 638 ng·h/mL | Cmax [1, 13]: 229 ng/mL | AUC(0-t) [1, 14]: 822 ng·h/mL | Cmax [1, 14]: 262 ng/mL | AUC(0-t) [1, 15]: 855 ng·h/mL | Cmax [1, 15]: 242 ng/mL | AUC(0-t) [1, 16]: 635 ng·h/mL | Cmax [1, 16]: 192 ng/mL | AUC(0-t) [1, 17]: 1340 ng·h/mL | Cmax [1, 17]: 254 ng/mL | AUC(0-t) [1, 18]: 635 ng·h/mL | Cmax [1, 18]: 192 ng/mL | AUC(0-t) [1, 19]: 406 ng·h/mL | Cmax [1, 19]: 56 ng/mL | Tmax ([1]; human, plasma, oral, Dose-level 7: dacomitinib 30 mg (5/2) QD + PD-0325901 6 mg (5/2) BID, last day of concomitant use of both drugs, n = 2, read-out: tmax PD-0325901, mean): 4.5 h | AUC(0-t) [1, 20]: 463 ng·h/mL | Cmax [1, 20]: 134 ng/mL | AUC(0-t) [1, 21]: 667 ng·h/mL | Cmax [1, 21]: 155 ng/mL | AUC(0-t) [1, 22]: 160 ng·h/mL | Cmax [1, 22]: 43.7 ng/mL | AUC(0-t) [1, 23]: 145 ng·h/mL | Cmax [1, 23]: 47.7 ng/mL | half-life ([1]; human, plasma, oral, patients, combination treatment, read-out: half-life, range): 5 to 9.9 h | accumulation after multiple doses (AUC and Cmax) [1, 24]: minimal accumulation | half-life, mean [1, 24]: 7.7 h | recommended Phase 2 dose (RP2D) / established maximum dose level in the combination with continuous dacomitinib dosing [2]: 6 mg | formal single-agent RP2D [3]: 10 mg

— publication PMC7156736, “Phase 1 study of the pan-HER inhibitor dacomitinib plus the MEK1/2 inhibitor PD-0325901 in patients with KRAS-mutation-positive colorectal, non-small-cell lung and pancreatic cancer” (British Journal of Cancer, 2020)
